Test results reported in ChEMBL document CHEMBL1201862, “PubChem BioAssay data set” (2004).
Activity calls are given as the source filed them.

Tests used:
[1] = biological target: Heat shock protein HSP 90-alpha (Homo sapiens, UniProt P07900); experiment: Luminescence-based dose response biochemical high throughput screening assay for inhibitors of the Heat Shock Protein 90 (HSP90). [Related pubchem assays: 1831 (Summary AID.), 1846 (Confirmation screen.), 1789 (Primary screen.)]
[2] = biological target: T1, Voltage-gated inwardly rectifying potassium channel KCNH2 (Homo sapiens, UniProt Q12809); experiment: concentration-dependent hERG rescue from blockers – cell-based, thallium flux, dose response (AID 2121); format: ADME
T1 sequence (Q12809 whole entry): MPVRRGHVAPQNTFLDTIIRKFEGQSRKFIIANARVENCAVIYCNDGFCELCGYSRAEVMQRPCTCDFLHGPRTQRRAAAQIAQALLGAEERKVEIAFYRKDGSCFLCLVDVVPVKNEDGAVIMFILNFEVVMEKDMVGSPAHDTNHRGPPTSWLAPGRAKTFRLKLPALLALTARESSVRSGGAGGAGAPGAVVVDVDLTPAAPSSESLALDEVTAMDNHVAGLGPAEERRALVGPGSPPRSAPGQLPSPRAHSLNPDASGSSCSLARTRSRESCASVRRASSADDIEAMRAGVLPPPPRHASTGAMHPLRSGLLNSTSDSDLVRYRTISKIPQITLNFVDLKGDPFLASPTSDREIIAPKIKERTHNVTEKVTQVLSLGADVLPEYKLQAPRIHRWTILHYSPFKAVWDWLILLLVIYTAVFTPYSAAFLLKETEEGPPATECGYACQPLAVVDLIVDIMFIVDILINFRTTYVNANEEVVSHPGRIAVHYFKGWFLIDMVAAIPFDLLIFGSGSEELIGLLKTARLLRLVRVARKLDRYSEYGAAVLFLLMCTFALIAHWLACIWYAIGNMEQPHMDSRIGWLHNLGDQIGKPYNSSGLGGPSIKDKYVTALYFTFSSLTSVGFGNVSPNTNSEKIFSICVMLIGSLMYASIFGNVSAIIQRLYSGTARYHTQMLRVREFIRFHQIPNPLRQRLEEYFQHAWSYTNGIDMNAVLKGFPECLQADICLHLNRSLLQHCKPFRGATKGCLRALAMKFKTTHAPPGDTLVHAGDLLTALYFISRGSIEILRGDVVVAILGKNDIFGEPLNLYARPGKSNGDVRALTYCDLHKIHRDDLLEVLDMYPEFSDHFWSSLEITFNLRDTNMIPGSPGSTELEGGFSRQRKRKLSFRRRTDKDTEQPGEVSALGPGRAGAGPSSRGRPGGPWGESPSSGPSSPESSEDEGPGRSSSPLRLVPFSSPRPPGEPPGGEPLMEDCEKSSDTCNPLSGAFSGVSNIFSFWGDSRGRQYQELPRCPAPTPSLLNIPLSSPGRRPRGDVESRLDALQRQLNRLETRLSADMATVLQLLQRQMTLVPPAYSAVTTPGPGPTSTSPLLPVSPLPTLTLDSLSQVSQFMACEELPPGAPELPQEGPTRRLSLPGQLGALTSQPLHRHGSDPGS

[3] = biological target: T1, Voltage-gated inwardly rectifying potassium channel KCNH2; experiment: dose-dependent reversal of dofetilide hERG block – manual patch clamp, HEK293 cells, dose response (AID 2638); format: ADME
[4] = Luminescence Cell-Based Dose Response HTS to Identify Inhibitors of 5'UTR Stem-Loop Driven Prion Protein mRNA Translation in H4 Neuroglioblastoma Cells. [Related pubchem assays: 1827 (Project Summary), 1813 (Primary HTS)]; format: functional
[5] = luciferase reporter signal suppression in cells – H4 neuroglioma cells, luminescence, dose response (AID 1990); format: functional, cell-based
[6] = IC50 of Artemis nuclease activity blockers – biochemical, fluorescence intensity, dose response (AID 720701); format: functional;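 note: Artemis endonuclease enzyme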
[7] = alpha-synuclein stem-loop luciferase translation blockers – H4 neuroglioma cells, luminescence, confirmation (AID 1988); format: functional, cell-based
NADPH oxidase 1 [8] = biological target: T2, NADPH oxidase 1 (Homo sapiens, UniProt Q9Y5S8); experiment: Late stage results from the probe development effort to identify inhibitors of NOX1: HEK/293 IC50. [Related pubchem assays: 1796 (Summary AID (NOX1)), 2752 (Primary screen (NOX1 inhibitors, synthesized analogs set 2)), 2664 (Primary screen (NOX1 inhibitors, synthesized analogs)), 1792 (Primary Screen (NOX1)), 2545 (Confirmation screen (NOX1 …; format: functional
T2 sequence (Q9Y5S8 whole entry): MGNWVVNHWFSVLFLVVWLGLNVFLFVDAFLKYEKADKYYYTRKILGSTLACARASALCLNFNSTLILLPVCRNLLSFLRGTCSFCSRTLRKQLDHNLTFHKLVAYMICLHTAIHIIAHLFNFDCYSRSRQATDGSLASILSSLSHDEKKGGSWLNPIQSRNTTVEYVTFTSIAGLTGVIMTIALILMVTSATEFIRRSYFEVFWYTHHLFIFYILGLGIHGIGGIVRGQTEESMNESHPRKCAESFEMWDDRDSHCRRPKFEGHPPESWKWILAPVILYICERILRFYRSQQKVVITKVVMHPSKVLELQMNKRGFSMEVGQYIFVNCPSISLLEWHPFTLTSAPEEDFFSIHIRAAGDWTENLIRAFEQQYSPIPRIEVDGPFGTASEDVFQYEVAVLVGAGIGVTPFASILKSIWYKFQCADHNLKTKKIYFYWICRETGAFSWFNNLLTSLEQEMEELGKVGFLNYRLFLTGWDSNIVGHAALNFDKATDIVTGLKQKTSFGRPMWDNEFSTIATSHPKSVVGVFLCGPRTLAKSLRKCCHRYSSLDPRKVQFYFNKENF

NADPH oxidase 1 [9] = biological target: T2, NADPH oxidase 1; experiment: potency of NOX1 inhibition in cells – cell-based, luminescence, cherry picks 2, dose response (AID 434997); format: functional
[10] = ATP-based viability loss in HeLa cells – cell-based, CellTiter-Glo luminescence, dry powder, set 2, cytotoxicity control, dose response (AID 720593); format: functional
Streptococcus = experiment: GAS UMAA2166 growth inhibition – luminescence, BacTiterGlo, counter-screen for streptokinase expression inhibitor project, dose response (AID 1915); format: functional, organism-based;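 note: potency for reduction of bacterial viability or growth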
[11] = ATP-based viability loss in HEK293T cells – cell-based, CellTiter-Glo luminescence, dry powder, set 2, cytotoxicity control, dose response (AID 720595); format: functional; conditions: HEK293
Nonstructural protein 1 = Nonstructural protein 1 (Influenza A virus, UniProt Q194T2); format: functional, Influenza A virus (A/California/07/2009(H1N1))
Chain of Nonstructural protein 1 (Q194T2 whole entry): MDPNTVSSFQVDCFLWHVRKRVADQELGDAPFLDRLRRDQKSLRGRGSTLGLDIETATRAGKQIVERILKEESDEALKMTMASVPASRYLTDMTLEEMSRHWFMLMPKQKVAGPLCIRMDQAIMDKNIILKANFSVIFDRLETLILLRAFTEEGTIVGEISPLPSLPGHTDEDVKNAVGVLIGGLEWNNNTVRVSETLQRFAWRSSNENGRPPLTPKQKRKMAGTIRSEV

[12] = test system: Streptococcus sp. 'group A'; experiment: Streptococcus pyogenes SK(-)GAS viability under kanamycin – luminescence, BacTiterGlo, confirmation, counter-screen for streptokinase expression inhibitor project, dose response (AID 1900); format: functional, organism-based
Streptokinase A = biological target: T3, Streptokinase A (Streptococcus pyogenes serotype M1, UniProt P10520); experiment: viability-normalized secreted streptokinase activity reduction – plasminogen activation absorbance, OD405, dose response (AID 1914); format: functional, Streptococcus pyogenes M1 GAS;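 note: secreted streptokinase activity via plasminogen activation per viability signal from cell pellet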
T3 sequence (P10520 whole entry): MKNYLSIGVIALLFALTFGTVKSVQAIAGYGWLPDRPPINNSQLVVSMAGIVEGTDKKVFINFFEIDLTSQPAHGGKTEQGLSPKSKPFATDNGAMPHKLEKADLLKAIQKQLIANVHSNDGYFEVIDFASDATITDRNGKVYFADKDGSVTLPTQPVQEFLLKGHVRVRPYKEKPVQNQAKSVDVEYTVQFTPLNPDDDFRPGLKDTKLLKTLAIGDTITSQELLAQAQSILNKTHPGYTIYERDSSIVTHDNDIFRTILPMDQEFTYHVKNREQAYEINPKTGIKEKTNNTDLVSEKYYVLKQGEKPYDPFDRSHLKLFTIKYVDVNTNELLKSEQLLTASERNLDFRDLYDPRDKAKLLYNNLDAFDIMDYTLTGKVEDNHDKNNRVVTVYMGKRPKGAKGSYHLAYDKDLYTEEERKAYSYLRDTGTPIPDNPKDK

[13] = biological target: Dual specificity tyrosine-phosphorylation-regulated kinase 1A (Rattus norvegicus, UniProt Q63470); format: biochemical, Homo sapiens
[14] = biological target: Bifunctional protein GlmU (Mycobacterium tuberculosis, UniProt P9WMN3); experiment: Inhibitors of Mycobacterial Glucosamine-1-phosphate acetyl transferase (GlmU). Secondary screen.; set-up: species or system Mycobacterium tuberculosis H37Rv
Vero = experiment: mammalian cell viability reduction – secondary assay, cytotoxicity control for West Nile virus antiviral project, dose response (AID 1650); format: functional; conditions: Chlorocebus sabaeus
Estrogen receptor = biological target: T4, Estrogen receptor (Homo sapiens, UniProt P03372);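 note: potency for inhibiting coactivator peptide recruitment to the receptor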
T4 sequence (P03372 whole entry): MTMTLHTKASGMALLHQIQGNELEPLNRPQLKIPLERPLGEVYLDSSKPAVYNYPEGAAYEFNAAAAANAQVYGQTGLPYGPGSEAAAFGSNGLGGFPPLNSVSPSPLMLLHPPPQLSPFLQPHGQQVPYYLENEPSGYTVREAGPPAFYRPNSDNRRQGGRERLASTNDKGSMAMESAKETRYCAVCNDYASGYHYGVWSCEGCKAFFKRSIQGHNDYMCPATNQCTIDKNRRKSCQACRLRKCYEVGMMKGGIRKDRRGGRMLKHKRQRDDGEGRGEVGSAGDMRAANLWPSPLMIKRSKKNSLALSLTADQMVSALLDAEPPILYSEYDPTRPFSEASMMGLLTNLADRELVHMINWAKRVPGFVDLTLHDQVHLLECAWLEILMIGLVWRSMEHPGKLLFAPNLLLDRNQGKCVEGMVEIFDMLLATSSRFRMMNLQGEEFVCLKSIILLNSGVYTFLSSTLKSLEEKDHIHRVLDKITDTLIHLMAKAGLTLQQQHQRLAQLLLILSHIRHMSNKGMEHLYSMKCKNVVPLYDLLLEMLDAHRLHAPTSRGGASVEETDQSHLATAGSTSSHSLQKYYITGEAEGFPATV

[15] = biological target: Photoreceptor-specific nuclear receptor (Homo sapiens, UniProt Q9Y5X4); experiment: ligands suppressing NR2E3 nuclear receptor activity – biochemical, TR-FRET, dose response (AID 463256); format: functional
[16] = biological target: Peroxisome proliferator-activated receptor gamma/Nuclear receptor corepressor 2 (Homo sapiens, UniProt P37231+Q9Y618); experiment: Counterscreen for NR2E3 inverse agonists: TR-FRET-based biochemical high throughput dose response assay to identify inverse agonists of the interaction between peroxisome proliferator-activated receptor gamma (PPARg) and nuclear receptor co-repressor 2 (NCOR2).; format: functional
Chain of Peroxisome proliferator-activated receptor gamma/Nuclear receptor corepressor 2 (P37231 whole entry): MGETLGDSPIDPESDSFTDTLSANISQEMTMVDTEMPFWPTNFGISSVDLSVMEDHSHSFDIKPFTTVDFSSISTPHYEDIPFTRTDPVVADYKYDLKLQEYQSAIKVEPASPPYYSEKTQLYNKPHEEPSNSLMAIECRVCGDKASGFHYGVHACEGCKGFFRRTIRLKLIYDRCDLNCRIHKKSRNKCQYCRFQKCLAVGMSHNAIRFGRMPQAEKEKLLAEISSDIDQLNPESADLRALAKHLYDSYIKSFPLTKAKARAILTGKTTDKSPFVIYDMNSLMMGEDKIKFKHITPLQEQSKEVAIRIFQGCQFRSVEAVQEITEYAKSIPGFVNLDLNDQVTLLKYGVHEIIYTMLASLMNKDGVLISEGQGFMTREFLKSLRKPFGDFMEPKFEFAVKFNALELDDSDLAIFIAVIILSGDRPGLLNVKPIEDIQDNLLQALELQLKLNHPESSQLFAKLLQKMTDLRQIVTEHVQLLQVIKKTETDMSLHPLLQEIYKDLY
Chain of Peroxisome proliferator-activated receptor gamma/Nuclear receptor corepressor 2 (Q9Y618 whole entry): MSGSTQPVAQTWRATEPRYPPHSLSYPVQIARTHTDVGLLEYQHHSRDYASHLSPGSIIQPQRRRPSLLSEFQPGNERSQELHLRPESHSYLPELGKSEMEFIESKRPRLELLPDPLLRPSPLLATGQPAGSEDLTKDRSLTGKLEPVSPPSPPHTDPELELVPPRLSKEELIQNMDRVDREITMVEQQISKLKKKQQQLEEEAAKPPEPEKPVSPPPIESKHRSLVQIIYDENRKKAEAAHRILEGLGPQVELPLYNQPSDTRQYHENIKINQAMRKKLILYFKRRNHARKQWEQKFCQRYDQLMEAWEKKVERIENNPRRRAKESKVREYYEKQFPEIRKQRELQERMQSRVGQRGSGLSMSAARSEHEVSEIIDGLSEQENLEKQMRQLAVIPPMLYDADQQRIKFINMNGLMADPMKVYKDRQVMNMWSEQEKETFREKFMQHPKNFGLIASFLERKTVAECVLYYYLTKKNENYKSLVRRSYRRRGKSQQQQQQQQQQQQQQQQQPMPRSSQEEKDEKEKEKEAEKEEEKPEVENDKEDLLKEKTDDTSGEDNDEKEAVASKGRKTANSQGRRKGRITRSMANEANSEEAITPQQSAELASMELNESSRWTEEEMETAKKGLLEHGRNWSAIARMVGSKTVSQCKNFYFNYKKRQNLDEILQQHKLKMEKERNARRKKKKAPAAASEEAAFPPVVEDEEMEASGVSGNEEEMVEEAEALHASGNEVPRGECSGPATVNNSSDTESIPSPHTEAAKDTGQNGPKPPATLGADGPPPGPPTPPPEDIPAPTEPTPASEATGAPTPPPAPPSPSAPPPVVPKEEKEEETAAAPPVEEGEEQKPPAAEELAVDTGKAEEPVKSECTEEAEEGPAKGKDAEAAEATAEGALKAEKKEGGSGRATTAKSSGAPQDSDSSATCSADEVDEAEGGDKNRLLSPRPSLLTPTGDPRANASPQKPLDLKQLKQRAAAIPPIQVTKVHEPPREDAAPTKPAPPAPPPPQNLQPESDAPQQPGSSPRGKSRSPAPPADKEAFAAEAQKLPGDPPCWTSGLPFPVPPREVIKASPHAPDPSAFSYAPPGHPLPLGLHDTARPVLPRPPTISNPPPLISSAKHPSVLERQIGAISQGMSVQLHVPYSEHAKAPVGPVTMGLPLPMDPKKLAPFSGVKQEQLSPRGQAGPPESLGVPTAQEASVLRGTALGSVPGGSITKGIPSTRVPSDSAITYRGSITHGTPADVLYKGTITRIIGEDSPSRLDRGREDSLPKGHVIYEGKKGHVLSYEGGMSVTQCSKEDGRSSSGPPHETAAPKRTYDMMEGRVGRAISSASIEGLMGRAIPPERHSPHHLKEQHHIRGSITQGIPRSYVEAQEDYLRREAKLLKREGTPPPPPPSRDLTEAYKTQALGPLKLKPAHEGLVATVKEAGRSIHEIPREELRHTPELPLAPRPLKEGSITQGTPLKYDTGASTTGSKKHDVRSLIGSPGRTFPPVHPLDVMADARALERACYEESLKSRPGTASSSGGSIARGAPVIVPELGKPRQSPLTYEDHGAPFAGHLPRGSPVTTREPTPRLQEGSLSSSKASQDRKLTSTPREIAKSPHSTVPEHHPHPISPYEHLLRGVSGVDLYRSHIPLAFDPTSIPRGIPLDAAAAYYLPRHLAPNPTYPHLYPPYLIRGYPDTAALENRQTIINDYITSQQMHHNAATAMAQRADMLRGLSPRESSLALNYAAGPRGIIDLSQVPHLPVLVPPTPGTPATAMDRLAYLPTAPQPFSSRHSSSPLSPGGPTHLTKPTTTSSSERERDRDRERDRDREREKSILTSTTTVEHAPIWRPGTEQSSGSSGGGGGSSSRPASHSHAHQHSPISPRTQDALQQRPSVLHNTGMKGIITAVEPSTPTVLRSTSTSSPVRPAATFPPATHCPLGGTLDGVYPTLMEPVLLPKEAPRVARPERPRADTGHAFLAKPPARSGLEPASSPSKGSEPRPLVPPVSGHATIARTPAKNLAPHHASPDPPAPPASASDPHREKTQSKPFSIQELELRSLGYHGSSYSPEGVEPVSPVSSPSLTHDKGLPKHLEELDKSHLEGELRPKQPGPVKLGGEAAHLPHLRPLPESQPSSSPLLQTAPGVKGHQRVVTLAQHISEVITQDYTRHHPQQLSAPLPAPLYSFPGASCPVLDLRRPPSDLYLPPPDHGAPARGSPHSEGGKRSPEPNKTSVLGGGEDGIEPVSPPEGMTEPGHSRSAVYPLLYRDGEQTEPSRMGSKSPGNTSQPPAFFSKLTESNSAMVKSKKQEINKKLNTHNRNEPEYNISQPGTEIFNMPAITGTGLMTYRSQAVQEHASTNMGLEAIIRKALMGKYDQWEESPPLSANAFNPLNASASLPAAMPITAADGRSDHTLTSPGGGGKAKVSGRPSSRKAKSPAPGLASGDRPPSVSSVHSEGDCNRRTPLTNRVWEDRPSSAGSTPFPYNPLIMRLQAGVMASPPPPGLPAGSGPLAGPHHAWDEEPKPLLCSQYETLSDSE

[17] = biological target: T5, Heat shock factor protein 1 (Mus musculus, UniProt P38532); experiment: decrease of HSF1-responsive luciferase luminescence – cell-based, NIH3T3, dose retest, confirmation (AID 2382); format: functional;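 note: NIH3T3 fibroblasts with HSF1-driven luciferase reporter stressed by proteasome inhibitor MG132; luminescence from HSF1-driven luciferase expression after 8 hours of MG132 stress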
T5 sequence (P38532 whole entry): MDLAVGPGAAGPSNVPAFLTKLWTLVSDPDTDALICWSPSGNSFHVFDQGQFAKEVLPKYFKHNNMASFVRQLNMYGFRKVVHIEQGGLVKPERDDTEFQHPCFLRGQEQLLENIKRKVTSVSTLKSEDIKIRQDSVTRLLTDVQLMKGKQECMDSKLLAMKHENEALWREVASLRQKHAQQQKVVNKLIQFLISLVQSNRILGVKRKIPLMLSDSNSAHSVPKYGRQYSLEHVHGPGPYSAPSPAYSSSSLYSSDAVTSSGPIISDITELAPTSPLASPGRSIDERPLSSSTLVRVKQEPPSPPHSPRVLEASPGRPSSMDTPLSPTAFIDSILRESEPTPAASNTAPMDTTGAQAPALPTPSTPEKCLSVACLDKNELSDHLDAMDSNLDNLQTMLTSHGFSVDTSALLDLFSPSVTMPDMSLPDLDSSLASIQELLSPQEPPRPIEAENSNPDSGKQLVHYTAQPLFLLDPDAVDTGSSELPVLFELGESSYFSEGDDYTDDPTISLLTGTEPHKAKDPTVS

[18] = biological target: 5-hydroxytryptamine receptor 1A (Homo sapiens, UniProt P08908); format: functional
Ephrin type-A receptor 4 = Ephrin type-A receptor 4 (Mus musculus, UniProt Q03137); experiment: EphA4 ligand-binding antagonists – biochemical, colorimetric, mouse EphA4, primary screen (AID 689); format: functional
[19] = viability loss in A549 lung cells – cell-based, 24 h, CellTiter-Glo luminescence, cherry-picks, cytotoxicity control, dose response (AID 1053115); format: functional; conditions: A549, 24 h
[20] = Late-stage results from the probe development effort to identify antagonists of arginine vasopressin receptor 1a (AVPR1a): fluorescence-based cell-based dose response AVPR1a inhibition assay.; format: functional
[21] = Late-stage results from the probe development effort to identify antagonists of arginine vasopressin receptor 1a (AVPR1a): fluorescence-based cell-based dose response OXTR inhibition counterscreen assay.; format: functional
Vasopressin V2 receptor = Vasopressin V2 receptor (Homo sapiens, UniProt P30518); experiment: Late-stage results from the probe development effort to identify antagonists of arginine vasopressin receptor 1a (AVPR1a): fluorescence-based cell-based dose response AVPR2 inhibition counterscreen assay.; format: functional
Vasopressin V1b receptor = Vasopressin V1b receptor (Homo sapiens, UniProt P47901); experiment: Late-stage results from the probe development effort to identify antagonists of arginine vasopressin receptor 1a (AVPR1a): fluorescence-based cell-based dose response AVPR1b inhibition counterscreen assay.; format: functional
[22] = toxicity to human hepatoma HepG2 cells – cell-based, cherry-picked samples, cytotoxicity control, dose response (AID 1159577); format: functional
[23] = P. falciparum Dd2 growth inhibitors, dose response, SYBR Green, cherry-picked samples (AID 1159567); format: functional, cell-based
[24] = biological target: G-protein coupled receptor 183 (Homo sapiens, UniProt P32249); experiment: SAR confirmation of small molecule antagonists of the EBI2 receptor via a luminescent beta-arrestin assa.; format: functional
[25] = CellTiter-Glo luminescence survival assay, SW480 colon tumor line, concentration-response curve, half-maximal inhibitory concentration (AID 1117338); format: functional
[26] = SNU-C1 cell viability reduction, dose response, CellTiter-Glo luminescence (AID 1117323); format: functional, cell-based
[27] = Reduced DLD-1 viability, concentration-response, CellTiter-Glo luminescence (AID 1117352); format: functional
[28] = cytotoxicity toward HCT116 cells – cell-based, CellTiter-Glo luminescence, IC50, dose response (AID 1117332); format: functional; conditions: HCT-116
[29] = cytotoxicity toward HT-29 cells – cell-based, CellTiter-Glo luminescence, IC50, dose response (AID 1117330); format: functional
[30] = RKO cell viability reduction, dose response, CellTiter-Glo luminescence (AID 1117322); format: functional
[31] = HCT116 cell viability decrease, GSK3B pretreatment – CellTiter-Glo, IC50, dose response (AID 1117339); format: functional; conditions: HCT-116
[32] = cytotoxicity toward Colo320 cells – cell-based, CellTiter-Glo luminescence, IC50, dose response (AID 1117334); format: functional; conditions: COLO 320

Cc1nc(CS(=O)(=O)c2ccc(Cl)cc2)sc1C(=O)O
IC50 [1]: 12.1 µM (not active)

O=C(O)c1cc(Cl)ccc1Nc1nc2cc(Cl)ccc2o1
EC50 [2]: 11.7 µM (active) | EC50 [3]: 107 µM (not active)

CSc1nnc2c3cc(C)ccc3n(Cc3ccccc3)c2n1
EC50 [4]: > 120 µM (not active) | EC50 [5]: > 120 µM (not active) | IC50 [6]: 19.8 µM (active) | EC50 [7]: > 120 µM (not active)

Cc1cc(Cl)ccc1NC(=S)NNC(=S)Nc1ccc(F)cc1
IC50 (NADPH oxidase 1 [8]): 960 nM (active) | IC50 (NADPH oxidase 1 [9]): 670 nM (active)

Cc1ccc(C(=O)Nc2nc(-c3ccccn3)cs2)o1
AC50 [10]: > 52 µM (inactive) | EC50 (Streptococcus): > 150 µM (not active) | AC50 [11]: 29.1 µM (active) | IC50 (Nonstructural protein 1): 10.1 µM (active) | EC50 [12]: 17.9 µM (active) | EC50 (Streptokinase A): > 150 µM (not active)

CC(C)S(=O)(=O)C1=NSC2=NC(=O)/C(=C\c3ccc(-c4cccc(C(=O)O)c4)o3)C(=N)N21
AC50 [13]: 8.1 µM (active) | IC50 [14]: 13.5 µM (active)

Cn1cc([N+](=O)[O-])c(C(=O)Nc2ccn(Cc3c(F)c(F)cc(F)c3F)n2)n1
CC50 (Vero): 20.8 µM (active)

Fc1ccc(CNc2nc3ccccc3n3cnnc23)cc1
IC50 (Estrogen receptor): > 50 µM (not active) | IC50 [15]: 2.69 µM (active) | IC50 [16]: 1.42 µM (active)

COc1cc(CN2CCN(c3cccc(C)c3C)CC2)cc(OC)c1O
EC50 [17]: > 195 µM (not active) | EC50 [18]: > 50 µM (not active)

O=C1/C(=C\c2ccco2)SC(=S)N1Cc1ccccc1
IC50 (Ephrin type-A receptor 4): 3.21 µM (active)

O=C(Nc1ccc2c(c1)[C@@H]1C[C@@H](CC(=O)N3CCCCC3)O[C@@H](CO)[C@@H]1O2)Nc1ccccc1F
AC50 [19]: 47.8 µM (active)

Cc1ccnc(N2CCN(C(=O)N(CC3CC3)c3ccc(Cl)cc3)CC2)c1
IC50 [20]: 15.8 nM (active) | IC50 [21]: > 50 µM (inactive) | IC50 (Vasopressin V2 receptor): > 50 µM (inactive) | IC50 (Vasopressin V1b receptor): > 50 µM (inactive)

COc1ccc2c3c([nH]c2c1)[C@@H](CO)N(C(=O)Nc1ccc(F)cc1)CC31CN(Cc2ccccc2OC)C1
AC50 [22]: 9.77 µM (active) | AC50 [23]: 3.7 µM (active)

O=C(/C=C/c1ccccc1C(F)(F)F)N1CCN(S(=O)(=O)c2ccc(Br)cc2)CC1
IC50 [24]: 310 nM (active)

CCCCCCCCCCCCCCCCCCOP(=O)([O-])OC1CC[N+](C)(C)CC1 [PERIFOSINE]
IC50 [25]: 852 nM (active) | IC50 [26]: > 20 µM (inactive) | IC50 [27]: > 20 µM (inactive) | IC50 [28]: 3.17 µM (active) | IC50 [29]: 6.9 µM (inactive) | IC50 [30]: 2.1 µM (active) | IC50 [31]: 5.79 µM (inactive) | IC50 [32]: 2.36 µM (active)
